Here are results for 15 compounds from ChEMBL document CHEMBL1201862, “PubChem BioAssay data set” (2004).

Some test systems named below: BT-549; DLD-1; DMS-114; DU-145; HOP-62; Hs-578T; KM-20L2; MDA-MB-231; MDA-MB-435; MDA-N; OVCAR-5; RPMI-8226; SK-MEL-2; SR; CAKI-1; IGROV-1; NCI-H23; SN12C; MCF7; NCI/ADR-RES.
What all share (assay): NCI tumour cell line growth inhibition, 48 h

“And” between values parts separate entries of the source, which are not always exact repeats. Equal values may be shown once.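 Cells were grown in 96-well plates and exposed to each compound for 48 hours at five concentrations; endpoints were interpolated linearly between bracketing concentrations, or set to the highest concentration if not reached. GI50: concentration for 50% inhibition of growth.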 The source made the active and inactive calls. Cut-off read from the data, not from the text of the source: active = GI50 up to about 1.1 µM and inactive = higher. Bounds are passed on as bounds.

Turning to `OC(CBr)C(O)C(O)C(O)CBr` (stereo not given), the GI50 in the experiment with BT-549 is 28.2 µM (inactive); in the experiment with DLD-1, > 100 µM (inactive); in the experiment on DMS-114, 42.4 µM (inactive); with DU-145, 12.7 µM (inactive); in the experiment on HOP-62, 28.1 µM (inactive) and 28.3 µM (inactive); with Hs-578T it was > 100 µM (inactive). The GI50 with KM-20L2 was > 100 µM (inactive); with MDA-MB-231, > 100 µM (inactive); in the experiment on MDA-MB-435, > 61.2 µM (inactive); in the experiment on MDA-N, > 45.9 µM (inactive); in the experiment on OVCAR-5, > 57 µM (inactive); with RPMI-8226 it was > 65.8 µM (inactive) and > 38.5 µM (inactive). Further, the GI50 is > 100 µM (inactive) and > 66.2 µM (inactive) in the experiment with SK-MEL-2; > 100 µM (inactive) in the experiment on SR.

As for `C/C(=N/NC(=O)CC(=O)N(C(=O)c1ccccc1Cl)c1ccc(C)cc1)c1cc2ccccc2oc1=O`, the GI50 was > 100 µM (inactive) with CAKI-1; > 100 µM (inactive) in the experiment with DLD-1; 49.8 µM (inactive) in the experiment with DMS-114; > 100 µM (inactive) with HOP-62; > 100 µM (inactive) in the experiment with IGROV-1; > 100 µM (inactive) with KM-20L2. Moreover, the GI50 was 45.5 µM (inactive) with NCI-H23, > 100 µM (inactive) in the experiment on OVCAR-5, > 100 µM (inactive) in the experiment with SN12C and 6.11 µM (inactive) with SR.

With `Cc1cccc(C)c1NC(=O)CCc1nnc2s/c(=C\c3ccc(N(C)C)cc3)c(=O)n12`, the GI50 in the experiment with CAKI-1 was > 100 µM (inactive); in the experiment on DLD-1 it was > 100 µM (inactive); in the experiment on DMS-114, 50.6 µM (inactive); in the experiment with HOP-62 it was > 100 µM (inactive); in the experiment with IGROV-1, > 100 µM (inactive); with KM-20L2, > 100 µM (inactive). Besides, the GI50 in the experiment with NCI-H23 is > 100 µM (inactive); with OVCAR-5, > 100 µM (inactive); in the experiment on RPMI-8226, 66.2 µM (inactive); in the experiment on SK-MEL-2, > 100 µM (inactive); with SN12C, > 100 µM (inactive); in the experiment on SR, > 100 µM (inactive).

With `Brc1nc2c3ccccc3ncn2c1Br`, the GI50 with CAKI-1 is 28.3 µM (inactive); in the experiment on DLD-1 it was 43.6 µM (inactive); with DMS-114, 33.4 µM (inactive); with HOP-62 it was 44.6 µM (inactive); in the experiment on IGROV-1, 35.9 µM (inactive); with KM-20L2, 28.4 µM (inactive). Moreover, the GI50 in the experiment on NCI-H23 is 20.7 µM (inactive); in the experiment on OVCAR-5 it was 64.9 µM (inactive); in the experiment with RPMI-8226, 23.4 µM (inactive); in the experiment on SK-MEL-2 it was 27.5 µM (inactive); in the experiment with SN12C, 30.1 µM (inactive); in the experiment with SR, 19.4 µM (inactive).

As to `CC(C)OP(=O)(OC(C)C)c1nc(-c2ccccc2)n(-c2ccc([N+](=O)[O-])cc2)n1`, the GI50 with CAKI-1, in the experiment on DLD-1, in the experiment on DMS-114, with HOP-62, in the experiment with IGROV-1 and in the experiment with KM-20L2 was > 100 µM (inactive) each time. Also, the GI50 was > 100 µM (inactive) with NCI-H23; > 100 µM (inactive) in the experiment with OVCAR-5; > 100 µM (inactive) in the experiment on RPMI-8226; 50.8 µM (inactive) with SK-MEL-2; > 100 µM (inactive) with SN12C.

With `O=C1OC(c2cccc(C(F)(F)F)c2)(c2cccc(C(F)(F)F)c2)c2ccc3ccccc3c21`, the GI50 is 26.7 µM (inactive) in the experiment on CAKI-1; > 10 µM (inactive) with DLD-1; 6.18 µM (inactive) in the experiment with DMS-114; > 10 µM (inactive) in the experiment with HOP-62; > 10 µM (inactive) with IGROV-1; 7.67 µM (inactive) with KM-20L2. The GI50 is 7.85 µM (inactive) in the experiment with NCI-H23; > 10 µM (inactive) in the experiment with OVCAR-5; 4.24 µM (inactive) in the experiment with RPMI-8226; > 10 µM (inactive) with SK-MEL-2; > 10 µM (inactive) in the experiment on SN12C; > 10 µM (inactive) in the experiment on SR.

Consider `COc1cc(OC)c(OC)cc1/C=C\c1ccnc2ccccc12`, for which the GI50 in the experiment on BT-549 is 0.412 µM (active); in the experiment with CAKI-1, 1.05 µM (active); with DLD-1 it was 0.944 µM (active); in the experiment on DMS-114, 0.649 µM (active); in the experiment on DU-145 it was 1.01 µM (active); in the experiment with HOP-62, 0.582 µM (active). The GI50 in the experiment on Hs-578T was 0.252 µM (active); in the experiment on IGROV-1, 0.897 µM (active); in the experiment with KM-20L2, 0.948 µM (active); in the experiment on MCF7, 0.372 µM (active); with MDA-MB-231 it was 0.796 µM (active); in the experiment on MDA-MB-435, 0.156 µM (active). Besides, the GI50 in the experiment with MDA-N is 0.185 µM (active); in the experiment on NCI-H23, 0.832 µM (active); with NCI/ADR-RES it was 0.374 µM (active); in the experiment with OVCAR-5, 7.23 µM (inactive); with RPMI-8226 it was 0.577 µM (active); in the experiment with SK-MEL-2, 0.308 µM (active). The results for the GI50 with SN12C and with SR were 0.622 µM (active) and 0.933 µM (active), respectively.

Regarding `COC(=O)NNc1c([N+](=O)[O-])cnn(-c2ccccc2)c1=O`, the GI50 with BT-549 was 1.82 µM (inactive); in the experiment with CAKI-1 it was 3.98 µM (inactive); in the experiment with DLD-1 it was 2.06 µM (inactive); with DMS-114 it was 3.37 µM (inactive); with DU-145, 5.62 µM (inactive); in the experiment on HOP-62, 7.21 µM (inactive). In addition, the GI50 was 4.53 µM (inactive) in the experiment on Hs-578T; 17.9 µM (inactive) with IGROV-1; 3.37 µM (inactive) with KM-20L2; 3.99 µM (inactive) in the experiment with MCF7; 1.66 µM (inactive) in the experiment with MDA-MB-435; 2.85 µM (inactive) in the experiment on MDA-N. The GI50 in the experiment on NCI-H23 was 2.67 µM (inactive); with OVCAR-5, 4.44 µM (inactive); in the experiment on RPMI-8226, 2.44 µM (inactive); in the experiment with SK-MEL-2, 2.95 µM (inactive); with SN12C, 1.99 µM (inactive); with SR, 0.497 µM (active).

For the compound `CC1=C(C(=O)Nc2ccc(Cl)c(Cl)c2)C(c2ccc([N+](=O)[O-])cc2)C(C(=O)Nc2ccc(Cl)c(Cl)c2)=C(C)N1`, the GI50 is 2.54 µM (inactive) in the experiment with CAKI-1; 3.41 µM (inactive) with DLD-1; 2.88 µM (inactive) in the experiment with DMS-114; 2.54 µM (inactive) in the experiment with HOP-62; 3.2 µM (inactive) with IGROV-1; 1.66 µM (inactive) with KM-20L2. Also, the GI50 is 2.21 µM (inactive) in the experiment on NCI-H23; 3.23 µM (inactive) in the experiment with OVCAR-5; 1.45 µM (inactive) with RPMI-8226; 2.1 µM (inactive) in the experiment with SK-MEL-2; 2.34 µM (inactive) in the experiment with SN12C; 0.179 µM (active) in the experiment with SR.

Turning to `O=C1CC2C(=O)N(Cc3ccccc3)C1C(S(=O)(=O)c1ccccc1)C2S(=O)(=O)c1ccccc1` (stereo not given), the GI50 was 0.604 µM (active) in the experiment with CAKI-1; 1.59 µM (inactive) with DLD-1; 1.29 µM (inactive) in the experiment on DMS-114; 22.1 µM (inactive) in the experiment on HOP-62; 20.9 µM (inactive) in the experiment on IGROV-1; 2.4 µM (inactive) in the experiment on KM-20L2. Also, the GI50 in the experiment with NCI-H23 was 3.25 µM (inactive); in the experiment with OVCAR-5 it was 18 µM (inactive); in the experiment with RPMI-8226, 3.08 µM (inactive); with SN12C it was 1.68 µM (inactive); in the experiment with SR it was 2.48 µM (inactive).

With `[O-][S+]1c2ccccc2N=C(c2ccc(Cl)cc2)CC1c1cccs1` (stereo not given), the GI50 in the experiment with CAKI-1 was 21.4 µM (inactive); with DLD-1, 12.2 µM (inactive); in the experiment with DMS-114, 14.6 µM (inactive); in the experiment with HOP-62 it was 79.3 µM (inactive); in the experiment with IGROV-1, 14.8 µM (inactive); in the experiment on KM-20L2 it was 20.9 µM (inactive). In addition, the GI50 with NCI-H23 was 23.8 µM (inactive); in the experiment on OVCAR-5, 16.7 µM (inactive); with RPMI-8226 it was 17 µM (inactive); in the experiment on SN12C it was 19 µM (inactive); with SR, 7.01 µM (inactive).

`FC(F)(F)C1(Cl)C(Cl)(c2ccccc2)C1(Cl)c1ccccc1` (stereo not given): the GI50 in the experiment with CAKI-1 is 13 µM (inactive); with DLD-1 it was 15.4 µM (inactive); in the experiment with DMS-114, 15.6 µM (inactive); in the experiment on HOP-62, 16.3 µM (inactive); in the experiment on IGROV-1, 12.9 µM (inactive); with KM-20L2, 13.9 µM (inactive). Also, the GI50 was 14.3 µM (inactive) with NCI-H23; 16.4 µM (inactive) with OVCAR-5; 27.7 µM (inactive) in the experiment on RPMI-8226; 15.7 µM (inactive) with SK-MEL-2; 15.2 µM (inactive) in the experiment with SN12C; 7.08 µM (inactive) in the experiment with SR.

As for `Cc1cc(O)c2c(c1)C(=O)c1c(c(O)cc(O)c1-c1c(O)cc(O)c3c1C(=O)c1cc(C)cc(O)c1C3=O)C2=O` [SKYRIN], the GI50 in the experiment with CAKI-1 was 16.8 µM (inactive); in the experiment with DLD-1 it was 8.75 µM (inactive); in the experiment on DMS-114, 16.7 µM (inactive); in the experiment on HOP-62, 12.4 µM (inactive); in the experiment on IGROV-1, 12.9 µM (inactive); with KM-20L2, 16.3 µM (inactive). The GI50 was 15 µM (inactive) in the experiment with MCF7; 13.1 µM (inactive) in the experiment on NCI-H23; 35.2 µM (inactive) in the experiment on NCI/ADR-RES; 38 µM (inactive) with OVCAR-5; 5.93 µM (inactive) in the experiment with RPMI-8226; 11.5 µM (inactive) in the experiment on SK-MEL-2. Further, in the experiment on SN12C, the GI50 was 10.6 µM (inactive).

In the case of `CC(=O)O[C@H]1C=CC(=O)C(C)CC1C` (stereo not given in full), the GI50 in the experiment with CAKI-1 was > 100 µM (inactive); in the experiment on DLD-1 it was 64 µM (inactive); in the experiment on DMS-114 it was > 100 µM (inactive); in the experiment on HOP-62, > 100 µM (inactive); in the experiment on IGROV-1, > 100 µM (inactive); in the experiment on KM-20L2 it was > 100 µM (inactive). For the same compound, the GI50 in the experiment on NCI-H23 is 75.9 µM (inactive); in the experiment on OVCAR-5, > 100 µM (inactive); in the experiment on SK-MEL-2, > 100 µM (inactive); in the experiment on SN12C, > 100 µM (inactive); with SR, > 100 µM (inactive).

Turning to `CCN(CC)CC1CCCCCCCCCCC1=O` (stereo not given), the GI50 with DLD-1, in the experiment on DMS-114, in the experiment with HOP-62, in the experiment on IGROV-1, in the experiment with KM-20L2 and in the experiment on NCI-H23 was > 100 µM (inactive) throughout. Further, the GI50 in the experiment with OVCAR-5, in the experiment on RPMI-8226, in the experiment with SK-MEL-2, in the experiment on SN12C and in the experiment on SR was > 100 µM (inactive) throughout.
